Assays:
acrolein = assay: Selective detection of acrolein: fluorescence staining of 11 normal and cancer cell lines; format: cell-based, human; conditions: 2.5-22.5 μM, 30 minutes at room temperature, with a higher concentration; FIG. 1
Protocol: The following 11 cell lines were seeded in 96 wells (4×10^4 cells/well) and left to stand for 24 hours before treatment so that the cell lines were adhered to the wells.
Normal cell: normal human diploid fibroblast (TIG3), normal human umbilical vein endothelial cell (HUVEC), normal human mammary gland cell (MCF10A)
Cancer cell: SKBR3 (human breast cancer cell), MDA-MB-231 (human breast cancer cell), BxPC3 (human pancreatic cancer cell), HT29 (human colonic cancer cell), MCF7 (human breast cancer cell), A549 (human lung cancer cell), HeLaS3 (human cervical cancer cell), PC3 (human prostatic cancer cell)
The cells were treated by adding, to media, 100 μL of TAMRA-PhN3 solutions (2.5 μM, 7.5 μM, 12.5 μM, 17.5 μM, 22.5 μM) described in Non-patent Literature 1 and Example 2. Then, the cells were incubated at room temperature for 30 minutes. The cells were fixed by paraformaldehyde, and fluorescence was recorded with use of Spectra Max M2e (Molecular Devices, LLC.).
In FIG. 1, the vertical axis represents a relative fluorescence intensity (arbitrary unit), and the horizontal axis represents a result of staining (fluorescence) of each normal or cancer cell.

[1] = tested on: acrolein that is generated from a cell; assay: Sensitivity comparison with conventional detection reagent: staining of normal and cancer cells; format: cell-based, human; conditions: for acrolein concentration level that can be detected: acrolein generated from a cell, suggested from FIG. 3 staining; for identification of localization and morphology of a cancer cell: at a low reagent concentration (0.25-1.5 μM, 5 minutes)
Protocol: Respective detection sensitivities of a detection reagent (TAMRA-PhN3) represented by Formula below and the compound 7 (TAMRA-di-iPr-PhN3) prepared in Example 1 were compared. Cells illustrated in FIG. 3 (for description of cell strains, see also Reference Example 1) were each immersed in an aqueous solution, containing the detection reagent at a concentration of 0.25 μM, 0.75 μM, or 1.5 μM, for 5 minutes so as to be stained.

[2] = tested on: invasive ductal carcinoma-positive, ductal carcinoma in situ-positive and cancer-negative tissue; assay: Staining of cancer tissue in a living tissue state; format: cell-based; conditions: 5, 10, 20 μM, 5 minutes at room temperature; FIG. 2
Protocol: An invasive ductal carcinoma-positive tissue (IDC-positive), a ductal carcinoma in situ-positive tissue (DCIS-positive), and a cancer-negative tissue (Cancer-negative) were each immersed in a TAMRA-PhN3 solution (5 μM, 10 μM, 20 μM). These tissues were incubated at room temperature for 5 minutes. The tissues were each stained in a living tissue state. […] Note that cell nuclei are stained with DAPI.
In FIG. 2, “Eyesight” indicates a photograph of each tissue that has been stained, and “Microscopy (×1)”, “Microscopy (×200)”, and “Microscopy (×400)” each indicate results of observations carried out with use of microscopes having respective magnifications of 1 time, 200 times, and 400 times.

| Compound | reaction product with acrolein (relative fluorescence intensity) (acrolein) | acrolein concentration level that can be detected [1] | identification of localization and morphology of a cancer cell [1] | observation of localization and morphology of a cancer cell in a living tissue [2] | detection sensitivity relative to TAMRA-PhN3 ([1]; cells immersed in aqueous solution of reagent at 0.25, 0.75 or 1.5 μM for 5 minutes, FIG. 3) |
| --- | --- | --- | --- | --- | --- |
| CN(C)c1ccc2c(-c3ccc(C(=O)NCc4ccc(N=[N+]=[N-])cc4)cc3C(=O)[O-])c3ccc(=[N+](C)C)cc-3oc2c1 [TAMRA-PhN3] | increase in reaction product (fluorescence intensity) | nM-level | cannot be identified | possible to observe localization and morphology of a cancer cell in detail in a living tissue |  |
| CC(C)c1cc(CNC(=O)c2ccc(-c3c4ccc(=[N+](C)C)cc-4oc4cc(N(C)C)ccc34)c(C(=O)[O-])c2)cc(C(C)C)c1N=[N+]=[N-] [compound 7, 5-carboxymethylrhodamine-diisopropylphenylazide] |  | pM level | possible to identify localization and morphology of a cancer cell |  | not less than 100 times |
